Experimental data as given in patent US11395847B2, “Acylated GLP-1/GLP-2 dual agonists” (Zealand Pharma A/S, priority 2016, dated 2022).
Where a SMILES comes first, the peptide text is derived from it.

target: T1, human GLP-1 receptor (Homo sapiens, UniProt P43220); assay: GLP-1 receptor potency assay (cAMP ALPHASCREEN, HEK293 cells stably expressing GLP-1 R); type: cell-based; settings: cAMP response, HEK293 cells expressing human GLP-1 R
T1 construct: expressed in transfected cells
Source text: One useful in vitro assay for measuring GLP-1 and GLP-2 receptor activity is quantitation of cAMP, i.e. 3′-5′-cyclic adenosine monophosphate, which is a second messenger essential in many biological processes, and one of the most ubiquitous mechanisms for regulating cellular functions.
The cDNA encoding the human glucagon-like peptide 1 receptor (GLP-1 R) (primary accession number P43220) was cloned from the cDNA BC112126 (MGC:138331/IMAGE:8327594). The DNA encoding the GLP-1-R was amplified by PCR using primers encoding terminal restriction sites for subcloning. The 5′-end primers additionally encoded a near Kozak consensus sequence to ensure efficient translation. […] The PCR products encoding the GLP-1-R were subcloned into a mammalian expression vector containing a neomycin (G418) resistance marker. The mammalian expression vectors encoding the GLP-1-R were transfected into HEK293 cells by a standard calcium phosphate transfection method. 48 hours post-transfection, cells were seeded for limited dilution cloning and selected with 1 mg/ml G418 in the culture medium. Following 3 weeks in G418 selection clones were picked and tested in a functional GLP-1 receptor potency assay as described below.
The cAMP ALPHASCREEN® assay from Perkin Elmer was used to quantitate the cAMP response to activation of the GLP1 and GLP2 receptor, respectively. […] Data from test compounds eliciting an increase in the intracellular level of cAMP were normalized relative to the positive and negative control (vehicle) to calculate the EC50 and maximal response from the concentration response curve.

T1 sequence (P43220 24-463): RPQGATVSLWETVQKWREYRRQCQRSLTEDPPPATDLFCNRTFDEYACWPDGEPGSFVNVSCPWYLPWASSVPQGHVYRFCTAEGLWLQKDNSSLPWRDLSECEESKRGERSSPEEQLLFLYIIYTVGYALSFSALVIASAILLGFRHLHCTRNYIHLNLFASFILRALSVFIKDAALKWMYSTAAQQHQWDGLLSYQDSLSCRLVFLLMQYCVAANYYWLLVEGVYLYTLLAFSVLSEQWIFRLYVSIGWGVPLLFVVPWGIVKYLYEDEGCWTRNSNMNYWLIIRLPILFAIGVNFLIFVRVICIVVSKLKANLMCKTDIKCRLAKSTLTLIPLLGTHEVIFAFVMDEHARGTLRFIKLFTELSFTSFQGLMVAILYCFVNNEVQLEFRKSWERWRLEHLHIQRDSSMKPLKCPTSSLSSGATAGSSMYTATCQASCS

EC50	SMILES
1.8 nM	CC[C@H](C)[C@H](NC(=O)[C@H](CC(C)C)NC(=O)[C@H](Cc1c[nH]c2ccccc12)NC(=O)[C@H](C)NC(=O)[C@@H](NC(=O)[C@H](Cc1ccccc1)NC(=O)[C@H](CC(=O)O)NC(=O)[C@H](CCCNC(=N)N)NC(=O)[C@H](C)NC(=O)[C@H](C)NC(=O)[C@H](CCC(N)=O)NC(=O)[C@H](CCCCNC(=O)CC[C@H](NC(=O)CCCCCCCCCCCCCCCCC(=O)O)C(=O)O)NC(=O)[C@H](CC(=O)O)NC(=O)[C@H](CC(C)C)NC(=O)[C@@H](NC(=O)[C@@H](NC(=O)[C@H](C)NC(=O)[C@H](CC(C)C)NC(=O)[C@H](CCC(=O)O)NC(=O)[C@H](CO)NC(=O)[C@H](CO)NC(=O)[C@H](Cc1ccccc1)NC(=O)[C@@H](NC(=O)CNC(=O)[C@H](CCC(=O)O)NC(=O)C(C)(C)NC(=O)[C@@H](N)Cc1c[nH]cn1)[C@@H](C)O)[C@@H](C)O)[C@@H](C)CC)[C@@H](C)CC)C(=O)N[C@@H](C)C(=O)N[C@@H](Cc1c[nH]cn1)C(=O)N[C@@H](CCCCN)C(=O)N[C@H](C(=O)N[C@H](C(=O)N[C@@H](CC(=O)O)C(=O)O)[C@@H](C)O)[C@@H](C)CC [Compound 21] (HELM PEPTIDE1{H.[Aib].E.G.T.F.S.S.E.L.A.T.I.L.D.K.Q.A.A.R.D.F.I.A.W.L.I.A.H.K.I.T.D}|PEPTIDE2{[O=C(O)CCCCCCCCCCCCCCCCC(=O)[*:2]].[gGlu]}$PEPTIDE1,PEPTIDE2,16:R3-2:R2$$$V2.0)
0.02 nM	CC[C@H](C)[C@H](NC(=O)[C@H](Cc1ccccc1)NC(=O)[C@H](CC(=O)O)NC(=O)[C@H](CCCNC(=N)N)NC(=O)[C@H](C)NC(=O)[C@H](C)NC(=O)[C@H](CCC(N)=O)NC(=O)[C@H](CCCCNC(=O)COCCOCCNC(=O)[C@H](CCCCN)NC(=O)[C@H](CCC(=O)O)NC(=O)[C@H](CCCCN)NC(=O)CC[C@H](NC(=O)CCCCCCCCCCCCCCCCCCC(=O)O)C(=O)O)NC(=O)[C@H](CC(=O)O)NC(=O)[C@H](CC(C)C)NC(=O)[C@@H](NC(=O)[C@@H](NC(=O)[C@H](C)NC(=O)[C@H](CC(C)C)NC(=O)[C@H](CCC(=O)O)NC(=O)[C@H](CO)NC(=O)[C@@H](NC(=O)[C@H](Cc1ccccc1)NC(=O)[C@@H](NC(=O)CNC(=O)[C@H](CCC(=O)O)NC(=O)C(C)(C)NC(=O)[C@@H](N)Cc1c[nH]cn1)[C@@H](C)O)[C@@H](C)O)[C@@H](C)O)[C@@H](C)CC)C(=O)N[C@@H](C)C(=O)N[C@@H](Cc1c[nH]c2ccccc12)C(=O)N[C@@H](CC(C)C)C(=O)N[C@H](C(=O)N[C@@H](CCC(N)=O)C(=O)N[C@@H](Cc1c[nH]cn1)C(=O)N[C@@H](CCCCN)C(=O)N[C@H](C(=O)N[C@H](C(=O)N[C@@H](CC(=O)O)C(=O)O)[C@@H](C)O)[C@@H](C)CC)[C@@H](C)CC [Compound 52] (HELM PEPTIDE1{H.[Aib].E.G.T.F.T.S.E.L.A.T.I.L.D.K.Q.A.A.R.D.F.I.A.W.L.I.Q.H.K.I.T.D}|PEPTIDE2{[O=C(O)CCCCCCCCCCCCCCCCCCC(=O)[*:2]].[gGlu].K.E.K.[O=C(COCCOCCN[*:1])[*:2]]}$PEPTIDE1,PEPTIDE2,16:R3-6:R2$$$V2.0)
0.27 nM	CC[C@H](C)[C@H](NC(=O)[C@H](Cc1ccccc1)NC(=O)[C@H](CC(=O)O)NC(=O)[C@H](CCCNC(=N)N)NC(=O)[C@H](C)NC(=O)[C@H](C)NC(=O)[C@H](CCC(N)=O)NC(=O)[C@H](CCCCNC(=O)COCCOCCNC(=O)[C@H](CCCCN)NC(=O)[C@H](CCC(=O)O)NC(=O)[C@H](CCCCN)NC(=O)CC[C@H](NC(=O)CCCCCCCCCCCCCCCCC(=O)O)C(=O)O)NC(=O)[C@H](CC(=O)O)NC(=O)[C@H](CC(C)C)NC(=O)[C@@H](NC(=O)[C@@H](NC(=O)[C@H](C)NC(=O)[C@H](CC(C)C)NC(=O)[C@H](CCC(=O)O)NC(=O)[C@H](CO)NC(=O)[C@H](CO)NC(=O)[C@H](Cc1ccccc1)NC(=O)[C@@H](NC(=O)CNC(=O)[C@H](CCC(=O)O)NC(=O)C(C)(C)NC(=O)[C@@H](N)Cc1c[nH]cn1)[C@@H](C)O)[C@@H](C)O)[C@@H](C)CC)C(=O)N[C@@H](C)C(=O)N[C@@H](Cc1c[nH]c2ccccc12)C(=O)N[C@@H](CC(C)C)C(=O)N[C@H](C(=O)N[C@@H](CCC(=O)O)C(=O)N[C@@H](Cc1c[nH]cn1)C(=O)N[C@@H](CCCCN)C(=O)N[C@H](C(=O)N[C@H](C(=O)N[C@@H](CC(=O)O)C(=O)O)[C@@H](C)O)[C@@H](C)CC)[C@@H](C)CC [Compound 49] (HELM PEPTIDE1{H.[Aib].E.G.T.F.S.S.E.L.A.T.I.L.D.K.Q.A.A.R.D.F.I.A.W.L.I.E.H.K.I.T.D}|PEPTIDE2{[O=C(O)CCCCCCCCCCCCCCCCC(=O)[*:2]].[gGlu].K.E.K.[O=C(COCCOCCN[*:1])[*:2]]}$PEPTIDE1,PEPTIDE2,16:R3-6:R2$$$V2.0)
0.25 nM	CC[C@H](C)[C@H](NC(=O)[C@H](CC(C)C)NC(=O)[C@H](Cc1c[nH]c2ccccc12)NC(=O)[C@H](C)NC(=O)[C@@H](NC(=O)[C@H](Cc1ccccc1)NC(=O)[C@H](CC(=O)O)NC(=O)[C@H](CCCNC(=N)N)NC(=O)[C@H](C)NC(=O)[C@H](C)NC(=O)[C@H](CC(C)C)NC(=O)[C@H](CCCCNC(=O)CC[C@H](NC(=O)CCCCCCCCCCCCCCCCC(=O)O)C(=O)O)NC(=O)[C@H](CC(=O)O)NC(=O)[C@H](CC(C)C)NC(=O)[C@@H](NC(=O)[C@@H](NC(=O)[C@H](C)NC(=O)[C@H](CC(C)C)NC(=O)[C@H](CCC(=O)O)NC(=O)[C@H](CO)NC(=O)[C@@H](NC(=O)[C@H](Cc1ccccc1)NC(=O)[C@@H](NC(=O)CNC(=O)[C@H](CCC(=O)O)NC(=O)C(C)(C)NC(=O)[C@@H](N)Cc1c[nH]cn1)[C@@H](C)O)[C@@H](C)O)[C@@H](C)O)[C@@H](C)CC)[C@@H](C)CC)C(=O)N[C@@H](C)C(=O)N[C@@H](Cc1c[nH]cn1)C(=O)N[C@@H](CCCCN)C(=O)N[C@H](C(=O)N[C@H](C(=O)N[C@@H](CC(=O)O)C(=O)O)[C@@H](C)O)[C@@H](C)CC [Compound 15] (HELM PEPTIDE1{H.[Aib].E.G.T.F.T.S.E.L.A.T.I.L.D.K.L.A.A.R.D.F.I.A.W.L.I.A.H.K.I.T.D}|PEPTIDE2{[O=C(O)CCCCCCCCCCCCCCCCC(=O)[*:2]].[gGlu]}$PEPTIDE1,PEPTIDE2,16:R3-2:R2$$$V2.0)
0.25 nM	CC[C@H](C)[C@H](NC(=O)[C@H](CC(C)C)NC(=O)[C@H](Cc1c[nH]c2ccccc12)NC(=O)[C@H](C)NC(=O)[C@@H](NC(=O)[C@H](Cc1ccccc1)NC(=O)[C@H](CC(=O)O)NC(=O)[C@H](CCCNC(=N)N)NC(=O)[C@H](C)NC(=O)[C@H](C)NC(=O)[C@H](CCC(N)=O)NC(=O)[C@H](CCC(=O)O)NC(=O)[C@H](CC(=O)O)NC(=O)[C@H](CC(C)C)NC(=O)[C@@H](NC(=O)[C@@H](NC(=O)[C@H](C)NC(=O)[C@H](CC(C)C)NC(=O)[C@H](CCC(=O)O)NC(=O)[C@H](CO)NC(=O)[C@H](CO)NC(=O)[C@H](Cc1ccccc1)NC(=O)[C@@H](NC(=O)CNC(=O)[C@H](CCC(=O)O)NC(=O)C(C)(C)NC(=O)[C@@H](N)Cc1c[nH]cn1)[C@@H](C)O)[C@@H](C)O)[C@@H](C)CC)[C@@H](C)CC)C(=O)N[C@@H](C)C(=O)N[C@@H](Cc1c[nH]cn1)C(=O)N[C@@H](CCCCN)C(=O)N[C@H](C(=O)N[C@H](C(=O)N[C@@H](CC(=O)O)C(=O)N[C@H](CCCCN)C(=O)N[C@H](CCCCN)C(=O)N[C@H](CCCCN)C(=O)N[C@H](CCCCN)C(=O)N[C@H](CCCCN)C(=O)N[C@H](CCCCNC(=O)CC[C@H](NC(=O)CCCCCCCCCCCCCCCCC(=O)O)C(=O)O)C(N)=O)[C@@H](C)O)[C@@H](C)CC [Compound 38] (HELM PEPTIDE1{H.[Aib].E.G.T.F.S.S.E.L.A.T.I.L.D.E.Q.A.A.R.D.F.I.A.W.L.I.A.H.K.I.T.D.[dK].[dK].[dK].[dK].[dK].[dK].[am]}|PEPTIDE2{[O=C(O)CCCCCCCCCCCCCCCCC(=O)[*:2]].[gGlu]}$PEPTIDE1,PEPTIDE2,39:R3-2:R2$$$V2.0)
